Experimental data from patent US20240299321A1, “METHODS TO SENSITIZE CANCER CELLS AND STANDARDIZED SCREENING ASSAY FOR IMMUNOTHERAPY” (THE TRUSTEES OF INDIANA UNIVERSITY, priority 2020, published 2024).

Key:
OVA+ EO771 cells = test: H-2Kb presentation on OVA+ EO771 cells (flow cytometry, confocal); type: cell-based, mouse; details: for H-2Kb antigen presentation (confocal images): 1 μM, 48 h, FIG. 4E; for H-2Kb levels on EO771 cells (MFI): flow cytometry
Experimental: (§1) Flow Cytometry: Sample acquisition was done using LSR Fortessa X-20 or LSR Fortessa (BD Biosciences) and data were analyzed using FlowJo v10.6.0 software. Live/dead cells were assessed using SYTOX Blue (Invitrogen, Dilution 1:100). For cell staining involving cell permeabilization, the BD cytofix/cytoperm fixation permeabilization kit (BD Biosciences) was used. The PBS buffer containing 0.5% BSA and 10% FBS were used to dilute antibodies. The antibodies used in flow cytometrical analyses include: […] The compensation was performed using CompBeads for negative control (BD Biosciences), anti-mouse Ig,κ (BD Biosciences), anti-rat Ig,κ and anti-hamster Ig,κ (BD Biosciences). The beads were stained with the corresponding antibodies separately under the same conditions as the cells were stained in each experiment. SYTOX Blue reagent was used to stain dead cells. Half of the live cells were incubated at 60° C. for 2 min to enable membrane permeable and then mixed with the other half incubated at 37° C. The mixed cells were stained with SYTOX Blue for 15 mins and used for compensation. For all the data analysis, doublet exclusion was performed and only single cells were analyzed. Dead cell populations were also excluded from analysis if the experiment were not involved in cell killing. One million events per sample were collected for immune profiling analysis in the animal experiments. For all in vitro experiments, at least ten thousand events per sample were collected for flow cytometry analysis. Confocal Microscopy: OVA+ EO771 and NY-ESO-1+ MDA-MB-468 cells were seeded at 5×10^3 cell/well in the 8-well slide (Millicell EZ slide, […]) and treated with 1 μM drug (GSK-LSD1, CUDC-101 or BML-210) for 48 h. FITC-conjugated anti-mouse H-2Kb antibody (Biolegend, dilution 1:50) and FITC-conjugated anti-HLA-A2 (Biolegend, dilution 1:50) were used to stain OVA+ EO771 and NY-ESO-1+ MDA-MB-468 cells, respectively, for 2 h. For cell nucleus staining, cells were incubated with 0.5% Triton X-100/PBS for 10 min and stained with DAPI (Sigma-Aldrich, dilution 1:100) for 15 min. The slides were rinsed in PBS twice and mounted with ProLong Gold anti-fade mountant (Invitrogen, P36930). Fluorescence images were captured using Leica TCS SP8 (upright high speed multiphoton) confocal imaging system. 3-D images were analyzed by the Imaris x64 8.1.2 software.

[1] = system: EO771 (Luc+OVA+) tumor organoids; test: EO771 tumor organoid and OVA-specific CD8+ T cell co-culture cytotoxicity; type: cell-based, mouse; details: for outcome of combined 2D co-culture, tumor organoid co-culture and antigen presentation screens: 1 μM, 48 h treatment; for organoid dissociation / tumor cell death rates: co-culture with T cells
Source text: In accordance with the present disclosure a drug screen platform was used to identify epigenetic inhibitors that increase a cancer cell's sensitivity to CD8+ T-cell cytotoxicity. In one embodiment the drug screen platform is composed of breast tumor organoids and tumor-specific CD8+ T cells. A lentiviral vector expressing OVA was transduced to the Luc+EO771 cells. The resulting OVA+ cells were orthotopically transplanted to C57BL/6 mice to generate syngeneic mammary tumors. The tumors were harvested and dissociated to single cells for 2D culture and only the adherent cells were collected to generate tumor organoids. 2 ml of tumor organoid culture medium (2×10^5 cells per ml) were seeded into 6-well culture plate with ultra-low attachment surface. After 7-day culture, tumor organoids were filtered by cell strainers with nylon mesh between 70 and 150 μm. The tumor organoids with diameter between 70 and 150 μm were treated with drugs for 48 h in the matrigel-free medium. The treated tumor organoids were then co-cultured with the pre-activated and OVA-specific CD8+ T cells from OT-I mice in the breast organoid culture medium containing 10 ng ml-1 IL2 without matrigel for 24 h. The luciferase released from the EO771 cells was measured using a Dual-luciferase report assay system (Promega) on a BioTek Cytation5 imaging reader, to assess the T cell-mediated cytotoxicity effect.
Cytotoxicity of CD8+ T cells in the co-culture with tumor organoids We generated mouse EO771 (Luc+OVA+) cell line that presents OVA257-264 antigen (from chicken ovalbumin) and human MDA-MB-468 (NY-ESO-1+) cell line that presents NY-ESO-1 antigen for use in the T cell-mediated cytotoxicity assay. OVA-specific CD8+ T cells were isolated from the spleen of OT-I mouse that contains transgenic inserts of Tcra-V2 and Tcrb-V5 genes. The transgenic T cell receptor can recognize the ovalbumin peptide SIINFEKL (OVA257-264; SEQ ID NO: 55). Anti-NY-ESO-1 human CD8^+ T cells (CELLERO™) were used to recognize the NY-ESO-1+ MDA-MB-468 cells. Autologous human CD8+ T cells were isolated from patient tumor tissues and amplified in the DMEM/F12 medium supplemented with 10% FBS, 2 mM Ultraglutamine I, 1% penicillin/streptomycin and 10 ng mL-1 of human IL2 for 7 days. The CD8+ T cells were stimulated by the T-activator CD3/CD28 Dynabeads (Gibco, 11452D for mouse and 11131D for human) for 48 h prior to use for cytotoxicity assay. Mouse and human tumor organoids with diameter between 70 and 150 μm were collected and mixed with corresponding CD8+ T cells in DMEM/F12 medium supplemented with 10% FBS, 2 mM Ultraglutamine I, 1% penicillin/streptomycin and 10 ng mL-1 IL2 (Biolegend, mouse: 575402; human: 589102) at a ratio of organoids versus T cells at 1:200 in the microplates with ultra-low attachment surface. The cells were co-cultured for 24 h and subject to further analyses, such as optical and fluorescence imaging, luciferase assay or flow cytometry.
Epigenetic inhibitor screen on CD8+ T cell-mediated cytotoxicity: The epigenetic inhibitor library (Cayman chemical, Cat #11071, Batch #0522205, data not shown) was used for drug screen. Three different screen methods were conducted. In tumor organoid-T cell co-culture, EO771 (Luc+OVA+) tumor organoids with diameter between 70 and 150 μm were seeded with 100 organoids/well and treated with 1 μM of drug for 48 h. The tumor organoids were centrifuged at 100 rcf for 5 min. The medium were replaced with fresh T cell culture medium containing OVA-specific T cells. A total of 20,000 T cells were added in each well. After co-culture for 24 h, cytotoxicity of tumor cells was measured using a Dual-luciferase report 1000 assay system (Promega) in which luciferase expressed exclusively in the live EO771 (Luc+OVA+) cells was detected by a BioTek Cytation5 imaging reader. Low levels of luciferase from survived tumor cells refer to high cytotoxicity in the co-culture. […]

[2] = system: NY-ESO-1+ MDA-MB-468 cells; test: HLA presentation on NY-ESO-1+ MDA-MB-468 cells (flow cytometry, confocal); type: cell-based, human; details: for HLA-A2 antigen presentation (confocal images): 1 μM, 48 h, FIG. 4F; for HLA levels on MDA-MB-468 cells (MFI): flow cytometry
Experimental: as §1

Question: What does the source list for `Nc1ccccc1NC(=O)CCCCCCC(=O)Nc1ccccc1` [BML-210]?
Answer: H-2Kb antigen presentation (confocal images) (OVA+ EO771 cells): boosted up the antigen presentation; H-2Kb levels on EO771 cells (MFI) (OVA+ EO771 cells): much higher levels; outcome of combined 2D co-culture, tumor organoid co-culture and antigen presentation screens [1]: increase the antigenicity of tumor cells and enhance their response to cytotoxic T cells; organoid dissociation [1]: greater organoid dissociation; tumor cell death rates [1]: higher tumor cell death rates; promotion of T cell-mediated cytotoxicity after knockdown of B2M ([1]; shB2M OVA+ EO771 cells, FIG. 4G): completely abolished; HLA-A2 antigen presentation (confocal images) [2]: boosted up the antigen presentation; HLA levels on MDA-MB-468 cells (MFI) [2]: much higher levels

Question: `C#Cc1cccc(Nc2ncnc3cc(OC)c(OCCCCCCC(=O)NO)cc23)c1` [CUDC-101] was tested. Which “H-2Kb antigen presentation (confocal images)” value (OVA+ EO771 cells) did it give?
Answer: boosted up the antigen presentation

Question: What about the “H-2Kb levels on EO771 cells (MFI)” value (OVA+ EO771 cells) of the same molecule?
Answer: increased

Question: What about the “outcome of combined 2D co-culture, tumor organoid co-culture and antigen presentation screens” value [1] of the same molecule?
Answer: increase the antigenicity of tumor cells and enhance their response to cytotoxic T cells

Question: What about the organoid dissociation [1] of the same molecule?
Answer: greater organoid dissociation

Question: And the “tumor cell death rates” value [1]?
Answer: higher tumor cell death rates

Question: And the “HLA-A2 antigen presentation (confocal images)” value [2]?
Answer: boosted up the antigen presentation

Question: What about the “HLA levels on MDA-MB-468 cells (MFI)” value [2] of the same molecule?
Answer: increased

Question: `c1ccc([C@@H]2C[C@H]2NC2CCNCC2)cc1` [GSK-LSD1] was tested. Which “H-2Kb antigen presentation (confocal images)” value (OVA+ EO771 cells) did it give?
Answer: boosted up the antigen presentation

Question: What about the “H-2Kb levels on EO771 cells (MFI)” value (OVA+ EO771 cells) of the same molecule?
Answer: increased

Question: And the “outcome of combined 2D co-culture, tumor organoid co-culture and antigen presentation screens” value [1]?
Answer: increase the antigenicity of tumor cells and enhance their response to cytotoxic T cells

Question: And the organoid dissociation [1]?
Answer: greater organoid dissociation

Question: What about the “tumor cell death rates” value [1] of the same molecule?
Answer: higher tumor cell death rates

Question: And the “HLA-A2 antigen presentation (confocal images)” value [2]?
Answer: boosted up the antigen presentation

Question: What about the “HLA levels on MDA-MB-468 cells (MFI)” value [2] of the same molecule?
Answer: increased
